Measured values taken from patent US12421207B2 (CMG Pharmaceutical Co., Ltd., priority 2022, dated 2025).

What was measured:
HCC827/ER cells = experiment: Cell viability assay (CellTiter-Glo 2.0), erlotinib-resistant HCC827/ER cells; assay type: cell-based, human; details: Homo sapiens, HCC827ER, Table 2, 72 h drug treatment, EGFR TKI resistant cells, combination with EGFR TKI, read-out: Relative cell viability
Text: (§1) To explore c-MET and AXL mechanisms of EGFR TKI resistance, resistant cells of the EGFR TKI hypersensitive EGFR exon 19 mutant NSCLC cell line, HCC827 and PC9 were generated by exposing these cells to increasing concentrations of EGFR TKI for over 3 months.
(§2) Gefitinib-resistant cells were referred to as HCC827/GR. […] Osimertinib-resistant cells were referred to as HCC827/OR.

HCC827/OR cells = experiment: Cell viability assay (CellTiter-Glo 2.0), osimertinib-resistant HCC827/OR cells; assay type: cell-based, human; details: Homo sapiens, HCC827; Table 2; 72 h drug treatment, EGFR TKI resistant cells, combination with EGFR TKI; read-out: Relative cell viability; IC50 HCC827OR
Text: as §1, §2

PC9/ER cells = experiment: Cell viability assay (CellTiter-Glo 2.0), erlotinib-resistant PC9/ER cells; assay type: cell-based; details: Homo sapiens, PC-9/ER; Table 2; 72 h drug treatment, EGFR TKI resistant cells, combination with EGFR TKI; read-out: Relative cell viability; IC50 PC9ER
Text: as §1, §2

HCC827/GR cells = experiment: Cell viability assay (CellTiter-Glo 2.0), gefitinib-resistant HCC827/GR cells; assay type: cell-based, human; details: Homo sapiens, HCC827; Table 2; 72 h drug treatment, EGFR TKI resistant cells, combination with EGFR TKI; read-out: Relative cell viability; IC50 HCC827GR
Text: as §1
The human cell line HCC827 was purchased from the American Type Culture Collection (Manassas, VA), and the PC9 cell line was obtained from RIKEN Cell Bank (Ibaraki, Japan). […] Gefitinib-resistant cells were referred to as HCC827/GR. […] Osimertinib-resistant cells were referred to as HCC827/OR.
(§3) Cell viability assays were carried out by plating 1,000 cells per well of HCC827 or PC9 resistant cells, respectively, into white transparent-bottom 384-well plates. The cells were treated with each TKI across a 10-dose range from 1 nM to 10,000 nM. After 72 h of drug treatment, cell viability was measured using the CellTiter-Glo 2.0 assay (Promega, Madison, WI).
as §3

In the case of `Cc1noc(C)c1-c1c(Oc2ccc(NC(=O)c3cn(C(C)C)c(=O)n(-c4ccc(F)cc4)c3=O)cc2F)ccnc1N` [Example 11], the IC50 (HCC827/ER cells) is reported as under 10000 nM, the IC50 (HCC827/OR cells) is reported as under 10000 nM and the IC50 (PC9/ER cells) is reported as under 10000 nM. For the same molecule, the IC50 (HCC827/GR cells) was under 10000 nM.

`CCCn1cc(-c2c(Oc3ccc(NC(=O)c4cn(C(C)C)c(=O)n(-c5ccc(F)cc5)c4=O)cc3F)ccnc2N)cn1` [Example 12, N-(4-(2-amino-3-(1-propyl-1H-pyrazol-4-yl)pyridine-4-yloxy)-3-fluorophenyl)-3-(4-fluorophenyl)-1-isopropyl-2,4-dioxo-1,2,3,4-tetrahydropyrimidine-5-carboxamide] gave an IC50 (HCC827/ER cells) of under 100 nM, an IC50 (HCC827/OR cells) of under 10 nM and an IC50 (PC9/ER cells) of under 1000 nM. The IC50 (HCC827/GR cells) was under 100 nM.

`CCCn1cc(C#Cc2c(Oc3ccc(NC(=O)c4cn(C(C)C)c(=O)n(-c5ccc(F)cc5)c4=O)cc3F)ccnc2N)cn1` [Example 13, N-(4-(2-amino-3-((1-propyl-1H-pyrazol-4-yl)ethynyl)pyridin-4-yloxy)-3-fluorophenyl)-3-(4-fluorophenyl)-1-isopropyl-2,4-dioxo-1,2,3,4-tetrahydropyrimidine-5-carboxamide] gave an IC50 (HCC827/ER cells) of under 10 nM, an IC50 (HCC827/OR cells) of under 10 nM and an IC50 (PC9/ER cells) of under 10 nM. It also gave an IC50 (HCC827/GR cells) of under 10 nM.

For `CC(C)n1cc(C(=O)Nc2ccc(Oc3ccnc(N)c3C#CC(=O)N3CCOCC3)c(F)c2)c(=O)n(-c2ccc(F)cc2)c1=O` [Example 14, N-(4-(2-amino-3-(3-morpholino-3-oxoprop-1-ynyl)pyridin-4-yloxy)-3-fluorophenyl)-3-(4-fluorophenyl)-1-isopropyl-2,4-dioxo-1,2,3,4-tetrahydropyrimidine-5-carboxamide], the IC50 (HCC827/ER cells) was under 10 nM, the IC50 (HCC827/OR cells) was under 10 nM and the IC50 (PC9/ER cells) was under 10 nM. For the same molecule, the IC50 (HCC827/GR cells) was under 100 nM.

In the case of `CC(C)n1cc(C(=O)Nc2ccc(Oc3ccnc(N)c3C#CC3CCNCC3)c(F)c2)c(=O)n(-c2ccc(F)cc2)c1=O` [Example 15, N-(4-(2-amino-3-(piperidin-4-ylethynyl)pyridin-4-yloxy)-3-fluorophenyl)-3-(4-fluorophenyl)-1-isopropyl-2,4-dioxo-1,2,3,4-tetrahydropyrimidine-5-carboxamide], the IC50 (HCC827/ER cells) is reported as under 100 nM, the IC50 (HCC827/OR cells) is reported as under 10 nM and the IC50 (PC9/ER cells) is reported as under 10 nM. It also gave an IC50 (HCC827/GR cells) of under 100 nM.

For `COCCN1CCC(C#Cc2c(Oc3ccc(NC(=O)c4cn(C(C)C)c(=O)n(-c5ccc(F)cc5)c4=O)cc3F)ccnc2N)CC1` [Example 16], the IC50 (HCC827/ER cells) was under 10 nM, the IC50 (HCC827/OR cells) was under 10 nM and the IC50 (PC9/ER cells) was under 10 nM. It also gave an IC50 (HCC827/GR cells) of under 10 nM.

Work on `CC(C)n1cc(C(=O)Nc2ccc(Oc3ccnc(N)c3C#CCN3CCNCC3)c(F)c2)c(=O)n(-c2ccc(F)cc2)c1=O` [Example 17] yielded an IC50 (HCC827/ER cells) of under 100 nM, an IC50 (HCC827/OR cells) of under 100 nM and an IC50 (PC9/ER cells) of under 100 nM. For the same molecule, the IC50 (HCC827/GR cells) was under 100 nM.

Work on `COCCN1CCN(CC#Cc2c(Oc3ccc(NC(=O)c4cn(C(C)C)c(=O)n(-c5ccc(F)cc5)c4=O)cc3F)ccnc2N)CC1` [Example 18, N-(4-(2-amino-3-(3-(4-(2-methoxyethyl)piperazin-1-yl)prop-1-ylny)pyridin-4-yloxy)-3-fluorophenyl)-3-(4-fluorophenyl)-1-isopropyl-2,4-dioxo-1,2,3,4-tetrahydropyrimidine-5-carboxamide] yielded an IC50 (HCC827/ER cells) of under 10 nM, an IC50 (HCC827/OR cells) of under 10 nM and an IC50 (PC9/ER cells) of under 100 nM. For the same molecule, the IC50 (HCC827/GR cells) was under 100 nM.

Molecule `CC(C)n1cc(C(=O)Nc2ccc(Oc3ccnc(N)c3C#CC(C)(C)N3CCNCC3)c(F)c2)c(=O)n(-c2ccc(F)cc2)c1=O` [Example 19, N-(4-(2-amino-3-(3-methyl-3-(piperazin-1-yl)but-1-ynyl)pyridin-4-yloxy)-3-fluorophenyl)-3-(4-fluorophenyl)-1-isopropyl-2,4-dioxo-1,2,3,4-tetrahydropyridmidine-5-carboxamide] has an IC50 (HCC827/ER cells) of under 10 nM, an IC50 (HCC827/OR cells) of under 100 nM and an IC50 (PC9/ER cells) of under 100 nM. The IC50 (HCC827/GR cells) was under 100 nM.

In the case of `COCCN1CCN(C(C)(C)C#Cc2c(Oc3ccc(NC(=O)c4cn(C(C)C)c(=O)n(-c5ccc(F)cc5)c4=O)cc3F)ccnc2N)CC1` [Example 20, N-(4-(2-amino-3-(3-(4-(2-methoxyethyl)piperazin-1-yl)-3-methylbut-1-ynyl)pyridin-4-yloxy)-3-fluorophenyl)-3-(4-fluorophenyl)-1-isopropyl-2,4-dioxo-1,2,3,4-tetrahydropyrimidine-5-carboxamide], the IC50 (HCC827/ER cells) is reported as under 10 nM, the IC50 (HCC827/OR cells) is reported as under 10 nM and the IC50 (PC9/ER cells) is reported as under 10 nM. It also gave an IC50 (HCC827/GR cells) of under 10 nM.

With `COCCN1CCN(C(=O)CCc2c(Oc3ccc(NC(=O)c4cn(C(C)C)c(=O)n(-c5ccc(F)cc5)c4=O)cc3F)ccnc2N)CC1` [Example 21, N-(4-(2-amino-3-(3-(4-(2-methoxyethyl)piperazin-1-yl)-3-oxopropyl)pyridin-4-yloxy)-3-fluorophenyl)-3-(4-fluorophenyl)-1-isopropyl-2,4-dioxo-1,2,3,4-tetrahydropyrimidine-5-carboxamide] the IC50 (HCC827/ER cells) was under 1000 nM, the IC50 (HCC827/OR cells) was under 1000 nM and the IC50 (PC9/ER cells) was under 1000 nM. For the same molecule, the IC50 (HCC827/GR cells) was under 100 nM.

`CC(C)n1cc(C(=O)Nc2ccc(Oc3ccnc(N)c3-c3ccccc3)c(F)c2)c(=O)n(-c2ccc(F)cc2)c1=O` [Example 22, N-(4-(2-amino-3-phenylpyridin-4-yloxy)-3-fluorophenyl)-3-(4-fluorophenyl)-1-isopropyl-2,4-dioxo-1,2,3,4-tetrahydropyrimidine-5-carboxamide] showed an IC50 (HCC827/ER cells) of under 100 nM, an IC50 (HCC827/OR cells) of under 100 nM and an IC50 (PC9/ER cells) of under 100 nM. It also gave an IC50 (HCC827/GR cells) of under 10 nM.

Molecule `CC(C)n1cc(C(=O)Nc2ccc(Oc3ccnc(N)c3C#CC3CCN(C)CC3)c(F)c2)c(=O)n(-c2ccc(F)cc2)c1=O` [Example 23, N-(4-(2-amino-3-((1-methylpiperidin-4-yl)ethynyl)pyridin-4-yloxy)-3-fluorophenyl)-3-(4-fluorophenyl)-1-isopropyl-2,4-dioxo-1,2,3,4-tetrahydropyrimidine-5-carboxamide] has an IC50 (HCC827/ER cells) of under 100 nM, an IC50 (HCC827/OR cells) of under 10 nM and an IC50 (PC9/ER cells) of under 10 nM. The IC50 (HCC827/GR cells) was under 100 nM.

For `CC(C)n1cc(C(=O)Nc2ccc(Oc3ccnc(N)c3C#CCN3CCOCC3)c(F)c2)c(=O)n(-c2ccc(F)cc2)c1=O` [Example 24, N-(4-(2-amino-3-(3-morpholinoprop-1-ynyl)pyridin-4-yloxy)-3-fluorophenyl)-3-(4-fluorophenyl)-1-isopropyl-2,4-dioxo-1,2,3,4-tetrahydropyrimidine-5-carboxamide], the IC50 (HCC827/ER cells) was under 10 nM, the IC50 (HCC827/OR cells) was under 10 nM and the IC50 (PC9/ER cells) was under 10 nM. It also gave an IC50 (HCC827/GR cells) of under 10 nM.

`CC(C)n1cc(C(=O)Nc2ccc(Oc3ccnc(N)c3C#CC(C)(C)N3CCOCC3)c(F)c2)c(=O)n(-c2ccc(F)cc2)c1=O` [Example 25, N-(4-(2-amino-3-(3-methyl-3-morpholinobut-1-ynyl)pyridin-4-yloxy)-3-fluorophenyl)-3-(4-fluorophenyl)-1-isopropyl-2,4-dioxo-1,2,3,4-tetrahydropyrimidine-5-carboxamide] was tested, and the IC50 (HCC827/ER cells) was under 10 nM, the IC50 (HCC827/OR cells) was under 10 nM and the IC50 (PC9/ER cells) was under 10 nM. The IC50 (HCC827/GR cells) was under 10 nM.

In the case of `CC(C)n1cc(C(=O)Nc2ccc(Oc3ccnc(N)c3C#CCN3CCN(C)CC3)c(F)c2)c(=O)n(-c2ccc(F)cc2)c1=O` [Example 26, N-(4-(2-amino-3-(3-(4-methylpiperazin-1-yl)prop-1-ynyl)pyridine-4-yloxy)-3-fluorophenyl)-3-(4-fluorophenyl)-1-isopropyl-2,4-dioxo-1,2,3,4-tetrahydropyrimidine-5-carboxamide], the IC50 (HCC827/ER cells) is reported as under 10 nM, the IC50 (HCC827/OR cells) is reported as under 10 nM and the IC50 (PC9/ER cells) is reported as under 1000 nM. For the same molecule, the IC50 (HCC827/GR cells) was under 100 nM.

For `CC(C)n1cc(C(=O)Nc2ccc(Oc3ccnc(N)c3C#CCC3CCNCC3)c(F)c2)c(=O)n(-c2ccc(F)cc2)c1=O` [Example 27, N-(4-(2-amino-3-(3-(piperidin-4-yl)prop-1-ynyl)pyridin-4-yloxy)-3-fluorophenyl)-3-(4-fluorophenyl)-1-isopropyl-2,4-dioxo-1,2,3,4-tetrahydropyrimidine-5-carboxamide], the IC50 (HCC827/ER cells) was under 10 nM, the IC50 (HCC827/OR cells) was under 10 nM and the IC50 (PC9/ER cells) was under 10 nM. It also gave an IC50 (HCC827/GR cells) of under 10 nM.

Molecule `COCCN1CCC(CC#Cc2c(Oc3ccc(NC(=O)c4cn(C(C)C)c(=O)n(-c5ccc(F)cc5)c4=O)cc3F)ccnc2N)CC1` [Example 28, N-(4-(2-amino-3-(3-(1-(2-methoxyethyl)piperidin-4-yl)prop-1-ynyl)pyridin-4-yloxy)-3-fluorophenyl)-3-(4-fluorophenyl)-1-isopropyl-2,4-dioxo-1,2,3,4-tetrahydropyrimidine-5-carboxamide] has an IC50 (HCC827/ER cells) of under 10 nM, an IC50 (HCC827/OR cells) of under 10 nM and an IC50 (PC9/ER cells) of under 10 nM. It also gave an IC50 (HCC827/GR cells) of under 10 nM.

For `CC(C)N1CCC(CC#Cc2c(Oc3ccc(NC(=O)c4cn(C(C)C)c(=O)n(-c5ccc(F)cc5)c4=O)cc3F)ccnc2N)CC1` [Example 29, N-(4-(2-amino-3-(3-(1-isopropylpiperidin-4-yl)prop-1-ynyl)pyridin-4-yloxy)-3-fluorophenyl)-3-(4-fluorophenyl)-1-isopropyl-2,4-dioxo-1,2,3,4-tetrahydropyrimidine-5-carboxmide], the IC50 (HCC827/ER cells) was under 10 nM, the IC50 (HCC827/OR cells) was under 10 nM and the IC50 (PC9/ER cells) was under 10 nM. The IC50 (HCC827/GR cells) was under 10 nM.
